Data on 28 compounds can be found in US6656911B2, “Serine protease inhibitors” (Cortech, Inc., priority 1994, dated 2003).

The target of the test is T1, human neutrophil elastase (HNE) (Homo sapiens, UniProt P08246).
T1 sequence (P08246 30-267): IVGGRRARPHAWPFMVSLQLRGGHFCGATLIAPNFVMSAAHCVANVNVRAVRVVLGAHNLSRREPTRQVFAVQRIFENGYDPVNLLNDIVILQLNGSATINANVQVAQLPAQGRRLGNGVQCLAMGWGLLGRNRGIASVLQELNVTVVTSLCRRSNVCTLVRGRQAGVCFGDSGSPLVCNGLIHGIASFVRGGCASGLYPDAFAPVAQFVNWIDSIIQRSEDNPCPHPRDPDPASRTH
In words: HNE Ki of CE compounds, tested as described in WO 96/16080. It counts as biochemical. Conditions: read-out: HNE Ki.

The term Ki denotes a measure of affinity in units of concentration, obtained from inhibition or displacement.

With `CC(C)[C@H](NC(=O)[C@@H]1CCCN1C(=O)[C@@H](NC(=O)OCc1ccccc1)C(C)C)C(=O)c1noc(Cc2ccc(N(C)C)cc2)n1` [CE2115, (Benzyloxycarbonyl)-L-valyl-N-[1-(3-[5-(4-dimethylaminobenzyl)-1,2,4-oxadiazolyl]carbonyl)-2-(S)-methylpropyl]-L-prolinamide], the inhibition constant (Ki) stood at 1 nM.

With `COC(=O)c1c(F)c2ccccc2n(CC(=O)N[C@H](C(=O)c2nnc(Cc3cccc(C)c3)o2)C(C)C)c1=O` [CE2117, 3-Carbomethoxy-4-fluoro-quinoline-2-one-N-[1-(2-[5-(3-methylbenzyl)-1,3,4-oxadiazolyl]carbonyl)-2-(S)-methylpropyl]acetamide], the Ki worked out at 586 nM.

Consider `Cc1cccc(Cc2nnc(C(=O)C(NC(=O)CN3C(=O)CCSC3c3ccccc3)C(C)C)o2)c1` [CE2118, 2-[2-(R,S)-Phenyl-4-oxometathiazan-3-yl]-N-[1-(2-[5-(3-methylbenzyl)-1,3,4-oxadiazolyl]carbonyl)-2-(S)-methylpropyl]acetamide], for which the Ki is 13.2 nM.

Take `Cc1cccc(Cc2nnc(C(=O)C(NC(=O)CN3C(=O)CSC3c3ccccc3)C(C)C)o2)c1` [CE2121, 2-[2-(R,S)-Phenyl-4-oxothiazolidin-3-yl]-N-[1-(2-[5-(3-methylbenzyl)-1,3,4-oxadiazolyl]carbonyl)-2-(S)-methylpropyl]acetamide]: the Ki came out at 28 nM.

Take `Cc1cccc(Cc2nnc(C(=O)[C@@H](NC(=O)CN3C(=O)CSC3Cc3ccccc3)C(C)C)o2)c1` (stereo partly shown) [CE2122]: the Ki amounted to 63 nM.

Turning to `Cc1cccc(Cc2nnc(C(=O)[C@@H](NC(=O)CN3C(=O)CN(Cc4ccccc4)C(=O)[C@@H]3Cc3ccccc3)C(C)C)o2)c1` [CE2128, 4-[1-Benzyl-3-(S)-benzylpiperazine-2,5,-dione]-N-[1-(2-(5-(3-methylbenzyl)-1,3,4-oxadiazolyl]carbonyl)-2-(S)-methylpropyl]acetamide], the inhibition constant (Ki) worked out at 64 nM.

On to `CC(C)[C@H](NC(=O)CN1C(=O)CN(Cc2ccccc2)C(=O)[C@@H]1Cc1ccccc1)C(=O)c1noc(Cc2cccc(C(F)(F)F)c2)n1` [CE2129, 4-[1-Benzyl-3-(S)-benzylpiperazine-2,5,-dione]-N-[1-(3-[5-(3-trifluoromethylbenzyl)-1,2,4-oxadiazolyl]carbonyl)-2-(S)-methylpropyl]acetamide], for which the inhibitory constant (Ki) stood at 300 nM.

Consider `CC(C)[C@H](NC(=O)CN1C(=O)CN(Cc2ccccc2)C(=O)[C@@H]1Cc1ccccc1)C(=O)c1noc(CCN(C)C)n1` [CE2133, 4-[1-Benzyl-3-(S)-benzylpiperazine-2,5,-dione]-N-[1-(3-[5-(2-dimethylaminoethyl)-1,2,4-oxadiazolyl]carbonyl)-2-(S)-methylpropyl]acetamide], for which the inhibitory constant (Ki) was 33000 nM.

Consider `Cc1cccc(Cc2nnc(C(=O)C(NC(=O)CN3C(=O)C[S+]([O-])C3Cc3ccccc3)C(C)C)o2)c1` [CE2136, 2-[(2-(R,S)-Benzyl-4-oxothiazolidin-3-yloxide]-N-[1-(2-[5-(3-methylbenzyl)-1,3,4-oxadiazolyl]carbonyl)-2-(R,S)-methylpropyl]acetamide], for which the Ki was 104 nM.

As to `CC(C)C(NC(=O)CN1C(=O)C[S+]([O-])C1Cc1ccccc1)C(=O)c1noc(Cc2cccc(C(F)(F)F)c2)n1` [CE2137, 2-[2-(R,S)-Benzyl-4-oxothiazolidin-3-yloxide]-N-[1-(3-[5-(3-trifluoromethylbenzyl)-1,2,4-oxadiazolyl]carbonyl)-2-(R,S)-methylpropyl]acetamide], the Ki was found to be 558 nM.

For `Cc1cccc(Cc2nnc(C(=O)[C@@H](NC(=O)CN3CC(=O)N(C(=O)c4ccccc4)CC3=O)C(C)C)o2)c1` [CE2138, (1-Benzoyl-3,6-piperazinedione)-N-[1-(2-[5-(3-S methylbenzyl)-1,3,4-oxadiazolyl]carbonyl)-2-(S)-methylpropyl]acetamide], the Ki was 294 nM.

With `Cc1cccc(Cc2nnc(C(=O)[C@@H](NC(=O)Cn3c(=O)c4ccccc4n(C(=O)c4ccccc4)c3=O)C(C)C)o2)c1` [CE2140, (1-Benzoyl-3,8-quinazolinedione)-N-[1-(2-[5-(3-methylbenzyl)-1,3,4-oxadiazolyl]carbonyl)-2-(S)-methylpropyl]acetamide], the Ki was determined as 204 nM.

With `Cc1cccc(Cc2nnc(C(=O)[C@@H](NC(=O)CN3C(=O)N[C@H](Cc4ccccc4)C3=O)C(C)C)o2)c1` [CE2142, 5-(R)-Benzyl-2,4-imidazolidinedione-N-[1-(2-[5-(3-methylbenzyl)-1,3,4-oxadiazolyl]carbonyl)-2-(S)-methylpropyl]acetamide], the Ki came to 8.7 nM.

In the case of `CC(=O)N1c2ccccc2C[C@H]1C(=O)N[C@H](C(=O)c1noc(Cc2cccc(C(F)(F)F)c2)n1)C(C)C` [CE2143, Acetyl-2-L-(2,3-dihydro-1H-indole)-N-[1-(3-[5(3-trifluoromethylbenzyl)-1,2,4-oxadiazolyl]carbonyl)-2-(S)-methylpropyl]amide], the Ki was 11.5 nM.

Turning to `Cc1cccc(Cc2nnc(C(=O)[C@@H](NC(=O)CN3C(=O)CN(Cc4ccccc4)C(=O)[C@H]3Cc3ccccc3)C(C)C)o2)c1` [CE2144, 4-[1-Benzyl-3-(R)-benzyl-piperazine-2,5,-dione]-N-[1-([5-(3-methylbenzyl)-1,3,4-oxadiazolyl]carbonyl)-2-(S)-methylpropyl]acetamide], the inhibitory constant (Ki) turned out to be 9.3 nM.

Take `Cc1cccc(Cc2nnc(C(=O)[C@@H](NC(=O)[C@@H]3Cc4ccccc4N3C(=O)[C@@H](NC(=O)OCc3ccccc3)C(C)C)C(C)C)o2)c1` [CE2145, (Benzyloxycarbonyl)-L-valyl-2-L-(2,3-dihydro-1H-indole)-N-[1-(2-[5-(3-methylbenzyl)-1,3,4-oxadiazolyl]carbonyl)-2-(S)-methylpropyl]amide]: the Ki is 0.038 nM.

In the case of `CC(C)[C@H](NC(=O)CN1C(=O)CN(Cc2ccccc2)C(=O)[C@H]1Cc1ccccc1)C(=O)c1noc(Cc2cccc(C(F)(F)F)c2)n1` [CE2146, 4-[1-Benzyl-3-(R)-benzylpiperazine-2,5,-dione]-N-[1-(3-(5-(3-trifluoromethylbenzyl)-1,2,4-oxadiazolyl]carbonyl)-2-(S)-methylpropyl]acetamide], the Ki stood at 67 nM.

Turning to `Cc1cccc(Cc2nnc(C(=O)[C@@H](NC(=O)CN3CC(=O)N(c4ccccc4)CC3=O)C(C)C)o2)c1` [CE2147, (1-Phenyl-3,6-piperazinedione)-N-[1-(2-[5-(3-methylbenzyl)-1,3,4-oxadiazolyl]carbonyl)-2-(S)-methylpropyl]acetamide], the inhibitory constant (Ki) was found to be 1600 nM.

For `CC(C)[C@H](NC(=O)CN1C(=O)N[C@@H](Cc2ccccc2)C1=O)C(=O)c1noc(Cc2cccc(C(F)(F)F)c2)n1` [CE2155, 5-(S)-Benzyl-2,4-imidazolidinedione-N-[1-(3-[5-(3-trifluoromethylbenzyl)-1,2,4-oxadiazolyl]carbonyl)-2-(S)-methylpropyl]acetamide], the Ki was determined as 57 nM.

Take `Cc1cccc(Cc2nnc(C(=O)[C@@H](NC(=O)CN3C(=O)CNC(=O)C3Cc3ccncc3)C(C)C)o2)c1` (stereo partly drawn) [CE2159, 2-(R,S)-[6-(Methylene-4-pyridyl)piperazine-2,5-dione]-N-[1-(2-[5-(3-methylbenzyl)-1,3,4-oxadiazolyl]carbonyl)-2-(S)-methylpropyl]acetamide]: the inhibitory constant (Ki) turned out to be 52 nM.

On to `CC(C)[C@H](NC(=O)CN1CCCC(NC(=O)OCc2ccccc2)C1=O)C(=O)c1noc(Cc2cccc(C(F)(F)F)c2)n1` (stereo partly drawn) [CE2160, 3-(R,S)-[(Benzyloxycarbonyl)amino-δ-lactam]-N-[1-(3-[5-(3-trifluoromethylbenzyl)-1,2,4-oxadiazolyl]carbonyl)-2-(S)-methylpropyl]acetamide], for which the Ki stood at 260 nM.

In the case of `Cc1cccc(Cc2nnc(C(=O)[C@@H](NC(=O)Cn3c(=O)[nH]n(-c4ccccc4)c3=O)C(C)C)o2)c1` [CE2166, 1-Phenyl-1,2,4-triazolidine-3,5-dione-N-[1-(2-[5-(3-methylbenzyl)-1,3,4-oxadiazolyl]carbonyl)-2-(S)-methylpropyl]acetamide], the inhibition constant (Ki) was 145 nM.

Regarding `Cc1cccc(Cc2nnc(C(=O)[C@@H](NC(=O)[C@@H]3CCCN3C(=O)[C@@H](NS(=O)(=O)c3ccccc3)C(C)C)C(C)C)o2)c1` [CE2168, Phenylsulfonyl-L-valyl-N-[1-(2-[5-(3-methylbenzyl)-1,3,4-oxadiazolyl]carbonyl)-2-(S)-methylpropyl]-L-prolinamide], the inhibitory constant (Ki) was 0.15 nM.

With `Cc1cccc(Cc2nnc(C(=O)[C@@H](NC(=O)OCc3ccccc3)C(C)C)o2)c1` [CE2170], the Ki amounted to 297 nM.

Consider `CC(C)[C@H](NC(=O)[C@@H]1CCCN1C(=O)[C@@H](NC(=O)c1cccnc1)C(C)C)C(=O)c1noc(Cc2cccc(C(F)(F)F)c2)n1` [CE2171, (3-Pyridylcarbonyl)-L-valyl-N-[1-(3-[5-(3-trifluoromethylbenzyl)-1,2,4-oxadiazolyl]carbonyl)-2-(S)-methylpropyl]-L-prolinamide], for which the inhibition constant (Ki) was found to be 0.64 nM.

For the compound `Cc1cccc(Cc2nnc(C(=O)[C@@H](NC(=O)Cn3c(=O)[nH]n(Cc4ccccc4)c3=O)C(C)C)o2)c1` [CE2176, 1-Benzyl-1,2,4-triazolidine-3,5-dione-N-[1-(2-[5-(3-methylbenzyl)-1,3,4-oxadiazolyl]carbonyl)-2-(S)-methylpropyl]acetamide], the inhibitory constant (Ki) stood at 52 nM.

Regarding `CC(C)C(NC(=O)CN1C(=O)C(Cc2ccccc2)N(CCN2CCOCC2)C1=O)C(=O)c1noc(Cc2cccc(C(F)(F)F)c2)n1` [CE2180, 1-(N-Morpholinoethyl)-5-(R)-benzyl-2,4-imidazolidinedione-N-[1-(3-[5-(3-trifluoromethylbenzyl)-1,2,4-oxadiazolyl]carbonyl)-2-(R,S)-methylpropyl]acetamide], the Ki came out at 44 nM.

For the compound `CC(C)C(NC(=O)CN1C(=O)C(Cc2ccccc2)N(CCN2CCOCC2)C1=O)C(=O)c1noc(Cc2cccc(C(F)(F)F)c2)n1` [CE2181, 1-(N-Morpholinoethyl)-5-(S)-benzyl-2,4-imidazolidinedione-N-[1-(3-[5-(3-trifluoromethylbenzyl)-1,2,4-oxadiazolyl]carbonyl)-2-(R,S)-methylpropyl]acetamide], the inhibition constant Ki was determined as 46 nM.
